In publication PMC9694711, “Synthesis of Paclitaxel Derivatives for Remote Loading into Liposomes and Improved Therapeutic Effect” (Molecules, 2022):

Columns and labels:
[1] = Liposome loading with calcium acetate gradients; assay type: physicochemical; conditions: sediment precipitated after loading
Excerpt: Since boronic acid RB(OH)2 is not only a weak acid, but also a structure that can complex with copper ions, ATP and saccharides, we investigated whether different inner phases could be employed to encapsulate compounds (4a, 4d, 13a, 17a, 17c) with good therapeutic index.

[2] = test system: lung cancer cell line A549; experiment: MTT assay, cytotoxicity on A549; assay type: cell-based, human; conditions: for GI50: Homo sapiens, A549, MTT, 72 h, mean of two independent determinations; for TI (LO2/A549): therapeutic index, GI50 LO2 / GI50 A549
Procedure: (§1) MTT assay was applied to verify the rationality of the molecular combination strategy. The cytotoxicity of the compounds was evaluated on lung cancer cell line A549, colon cancer cell line HCT-116, breast cancer cell line 4T1 and normal hepatocyte cell line LO2. Paclitaxel was used as a positive drug. […] The therapeutic index (TI) for LO2/HCT-116, LO2/A549 and LO2/4T1 of active compounds 4a, 4d, 13a, 17a, 17c and paclitaxel are shown in Table 2.
(§2) Cells were inoculated in 96-well plates (cell density 2 × 10^4 cells/well) followed by incubation for 24 h at 37 °C. Paclitaxel and target compounds were added to the corresponding well. Subsequently, the cultures were incubated for 72 h. After the MTT solution (50 µL, 2 mg/mL) was added to cultures, the plates were incubated for an additional 4 h. Purple colored formazan crystals were dissolved in 200 µL DMSO, and the absorbance was recorded at 570 nm using Synergy HT, Bio-Tek (Winooski, VT, USA).

[3] = test system: normal hepatocyte cell line LO2; experiment: MTT assay, cytotoxicity on normal cell LO2; assay type: cell-based; conditions: Hepatocyte; MTT, 72 h; mean of two independent determinations
Procedure: as §1, §2

[4] = Characterisation of compound 4d liposome (size, PDI, zeta potential, loading, storage stability); assay type: physicochemical; conditions: optimal formulation, drug to lipid ratio 1:10
Procedure: The morphology of compound 4d liposome is shown in Figure 3 and Figure 4, with spherical particles, a narrow size distribution at ~110 nm and zeta potential at ~−15 mV (Table S2).
(§3) Blank liposomes were prepared for membrane hydration. HSPC, chol and DSPE-PEG2000 were dissolved using chloroform at a mass ratio of 3:1:0.02 and then spin-evaporated at 37 °C. The obtained film was then hydrated with 300 mM Cu-Glu (pH 7.4) at 65 °C for 30 min. The multi-layer vesicles were subsequently put into an extruder and passed through polycarbonate membranes with pore sizes of 400 nm, 200 nm and 100 nm 12 times at 65 °C containing 20 mM HEPES, 15 mM EDTA and 300 mM sucrose for removing the un-encapsulated Cu^2+, and then EDTA was removed with 20 mM HEPES and 300 mM sucrose buffer (pH 7.4, adjusted with triethylamine). Compound 4d was dissolved in DMSO and slowly added into the liposome at 65 °C for 30 min and then quenched in an ice bath for 5 min (the drug to lipid ratio was 1:10). The encapsulation efficiency and drug loading efficiency of compound 4d were determined using HPLC. The morphologies of liposomes were characterized using a transition electron microscope (TEM, Hitachi HT7700, Tokyo, Japan); then, their size, PDI and Zeta potential were measured using a Zetasizer Nano ZS90 (Malvern, UK).

[5] = Liposome loading with copper ion gradients (encapsulation efficiency by HPLC); assay type: physicochemical; conditions: copper ion gradient
Excerpt: Vyxeos® is a liposomal formulation of a fixed molar ratio (1:5) combination of the antineoplastic drugs daunorubicin (DN) and cytarabine (Cyt). Daunorubicin is subsequently actively encapsulated with high efficiency through complexation with intra-liposomal copper. The copper gluconate buffer forms a complex with daunorubicin at a ratio of 1:1 to 1:2 [25]. Referring to Vyxeos®, copper ion was selected as a complexed metal ion in the inner phase. […] Therefore, compound 4d was selected to investigate the effect of the anions on the loading efficiency. Among them, only the neutral gluconate copper was a suitable inner phase to facilitate the encapsulation of compound 4d (Table 3).
(§4) The reason for the stability of the neutral formulations was potentially due to the fact that PBA was effectively […] and interacted with copper more tightly in the neutral condition compared with the acidic condition. Thus, the neutral Cu-gluconate was selected as the inner phase. The concentration of copper ions was also investigated, showing that the higher the copper concentration, the higher the EE. Considering the safety of copper ions, 300 mM was chosen. […] The EE of compound 4d active loading liposome was more than 95% with copper ion gradient. Furthermore, we also evaluated the ATP and saccharides as remote gradients with the optimal formulation of copper ion gradients.
as §3

[6] = Liposome loading with ATP and saccharides gradients; assay type: physicochemical; conditions: gradient ATP
Procedure: as §4
Thus, the copper ion gradient was chosen for further experiments.
Blank liposomes were prepared for membrane hydration. HSPC, chol and DSPE-PEG2000 were dissolved using chloroform at a mass ratio of 3:1:0.02 and then spin-evaporated at 37 °C. The obtained film was then hydrated with 300 mM Cu-Glu (pH 7.4) at 65 °C for 30 min. […] The encapsulation efficiency and drug loading efficiency of compound 4d were determined using HPLC. The morphologies of liposomes were characterized using a transition electron microscope (TEM, Hitachi HT7700, Tokyo, Japan); then, their size, PDI and Zeta potential were measured using a Zetasizer Nano ZS90 (Malvern, UK).

[7] = test system: colon cancer cell line HCT-116; experiment: MTT assay, cytotoxicity on HCT-116; assay type: cell-based, human; conditions: for GI50: Homo sapiens, HCT-116, MTT, 72 h, mean of two independent determinations; for TI (LO2/HCT-116): therapeutic index, GI50 LO2 / GI50 HCT-116
Procedure: as §1, §2

[8] = test system: breast cancer cell line 4T1; experiment: MTT assay, cytotoxicity on 4T1; assay type: cell-based, mouse; conditions: for GI50: Mus musculus, MTT, 72 h, mean of two independent determinations; for TI (LO2/4T1): therapeutic index, GI50 LO2 / GI50 4T1
Procedure: as §1, §2

4T1 xenograft tumor = experiment: In vivo antitumor efficacy and toxicity, 4T1 tumor model; conditions: 8 mg/kg, 4 times; mice bearing 4T1 tumor
Procedure: A549 and HCT-116 cells are human tumor cells, while 4T1 cells are mouse tumor cells. Based on the availability of the tumor model, mice bearing a 4T1 xenograft tumor were used to study the in vivo antitumor efficacy of the compound 4d liposome. As depicted in Figure 6a, there was difference between compound 4d (8 mg/kg) and the paclitaxel control group (8 mg/kg).
The antitumor effect was evaluated by the nude mice armpit tumor model bearing breast cancer 4T1 cells. When the average tumor volume reached 100 mm^3, the treatment was initiated at a 3-day interval for 12 days. The mice were randomly divided into five groups (n = 5 per group) receiving different palictaxel at 8 mg/kg as follows: saline (the control group), taxol, compound 4d, compound 4d liposome, high dose 4d liposome (3 times the dose, immediately 24 mg/kg). Tumor volume (V = length × width^2/2) and body weight were recorded. At the end of the experiment, mice were sacrificed. The obtained tumors were accurately weighed to calculate the tumor burden (Wtumor/Wbody) and tumor inhibition rate [TIR= (Wcontrol tumor − Wsample tumor)/Wcontrol tumor].

SMILES	encapsulation into liposomes by calcium acetate gradients [1]	GI50 [2] [nM]	TI (LO2/A549) [2]	GI50 [3] [nM]	Loading efficiency (%) [4] [%]	Encapsulated efficiency, optimal formulation ([5]; drug-to-lipid ratio of 0.1 w/w (1:10)) [%]	loading with inner phase of ATP [6]	GI50 [7] [nM]	TI (LO2/HCT-116) [7]	GI50 [8] [nM]	TI (LO2/4T1) [8]	loading into liposomes, copper ion as complexed metal ion in the inner phase [5]	inhibition % at fixed concentration, A549 (printed in GI50 column) ([2]; @6.25 nM) [%@6.25 nM]	tumor inhibition rate (4T1 xenograft tumor) [%]	inhibition % at fixed concentration, HCT-116 (printed in GI50 column) ([7]; @6.25 nM) [%@6.25 nM]
CC(=O)OC1C(=O)C2(C)C(O)CC3OCC3(OC(C)=O)C2C(OC(=O)c2ccccc2)C2(O)CC(OC(=O)C(OC(=O)CSSCC(=O)OCc3ccc(B(O)O)cc3)C(NC(=O)c3ccccc3)c3ccccc3)C(C)=C1C2(C)C (centres unmarked) [Compound 4d, 2’-O-[2-((2-((4-boronobenzyl)oxy)-2-oxoethyl)disulfaneyl)acetyl]taxol]	not feasible	13.9	45.9	639	9.02	> 95	not successful	13	49.1	69.8	9.2	–	–	–	–
CC(=O)OC1C(=O)C2(C)C(O)CC3OCC3(OC(C)=O)C2C(OC(=O)c2ccccc2)C2(O)CC(OC(=O)C(OC(=O)CCCCB(O)O)C(NC(=O)c3ccccc3)c3ccccc3)C(C)=C1C2(C)C (centres unmarked) [Compound 17c, 2’-O-[5-boronopentanoyl]taxol]	not feasible	44.8	31.6	1420	–	–	–	6.38	222.1	87.2	16.3	failed in loading into the liposomes	–	–	–
CC(=O)O[C@H]1C(=O)[C@@]2(C)[C@H]([C@H](OC(=O)c3ccccc3)[C@]3(O)C[C@H](OC(=O)[C@H](O)[C@@H](NC(=O)c4ccccc4)c4ccccc4)C(C)=C1C3(C)C)[C@]1(OC(C)=O)CO[C@@H]1C[C@@H]2O [paclitaxel]	–	–	–	69.1	–	–	–	–	–	25.3	2.7	–	64.96	58.5	81.86
